Reference: PMC11345841, “Exploring 2-Sulfonylpyrimidine Warheads as Acrylamide Surrogates for Targeted Covalent Inhibition: A BTK Story” (Journal of Medicinal Chemistry, 2024)
Where two headings read alike, the source gives them in different places.

Experiments:
[1] = target: BTK, full length (2–659) (Homo sapiens, UniProt Q06187); test: Kinact/Ki determination, PhosphoSens progress curve analysis; assay type: biochemical
Experimental: Nonlinear regression was performed using the Solver algorithm in Excel. […] Two-step Kinact/Ki fits were extracted from the progress curve analysis of all compounds against BTK, enabling independent Kinact and Ki determinations.

[2] = target: T1, ABL1(E255K)-phosphorylated (Homo sapiens, UniProt P00519, E255K); test: KINOMEscan ScanTK; assay type: binding
T1 construct: purchased Eurofins DiscoverX KINOMEscan (scanTK)

[3] = target: T2, ABL2 (Homo sapiens, UniProt P42684); test: KINOMEscan ScanTK; assay type: binding
T2 construct: purchased Eurofins DiscoverX KINOMEscan (scanTK)
T2 sequence (P42684 whole entry): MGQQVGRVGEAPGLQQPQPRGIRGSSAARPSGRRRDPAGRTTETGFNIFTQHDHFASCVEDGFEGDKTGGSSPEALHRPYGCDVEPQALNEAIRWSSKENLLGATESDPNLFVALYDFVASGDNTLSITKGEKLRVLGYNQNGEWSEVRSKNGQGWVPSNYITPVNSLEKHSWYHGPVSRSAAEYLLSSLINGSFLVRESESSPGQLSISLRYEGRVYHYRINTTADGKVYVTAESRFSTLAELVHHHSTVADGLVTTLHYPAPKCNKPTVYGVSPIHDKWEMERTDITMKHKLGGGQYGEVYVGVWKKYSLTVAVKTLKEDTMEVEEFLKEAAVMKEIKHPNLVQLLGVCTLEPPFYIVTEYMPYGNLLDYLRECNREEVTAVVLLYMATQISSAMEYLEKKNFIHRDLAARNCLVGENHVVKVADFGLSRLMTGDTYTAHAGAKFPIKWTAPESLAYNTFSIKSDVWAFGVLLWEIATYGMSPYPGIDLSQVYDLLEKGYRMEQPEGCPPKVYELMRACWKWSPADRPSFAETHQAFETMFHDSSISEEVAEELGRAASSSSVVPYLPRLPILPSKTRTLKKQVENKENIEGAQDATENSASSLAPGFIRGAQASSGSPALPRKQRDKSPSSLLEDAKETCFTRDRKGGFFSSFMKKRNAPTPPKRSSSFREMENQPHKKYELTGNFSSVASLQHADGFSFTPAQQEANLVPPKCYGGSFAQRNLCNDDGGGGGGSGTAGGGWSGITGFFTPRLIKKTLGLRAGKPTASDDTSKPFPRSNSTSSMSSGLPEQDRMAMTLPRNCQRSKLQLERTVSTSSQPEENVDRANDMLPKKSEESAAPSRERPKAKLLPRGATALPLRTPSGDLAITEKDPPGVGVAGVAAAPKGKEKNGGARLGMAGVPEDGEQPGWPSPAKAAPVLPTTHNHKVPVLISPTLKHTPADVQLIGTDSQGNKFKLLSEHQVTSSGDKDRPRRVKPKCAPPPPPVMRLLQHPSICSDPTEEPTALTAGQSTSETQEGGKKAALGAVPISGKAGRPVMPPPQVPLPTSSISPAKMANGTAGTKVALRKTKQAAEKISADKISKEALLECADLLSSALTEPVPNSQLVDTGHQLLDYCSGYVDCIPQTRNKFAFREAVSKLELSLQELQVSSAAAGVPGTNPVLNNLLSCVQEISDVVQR

[4] = target: T3, CSF1R-autoinhibited (Homo sapiens, UniProt P07333); test: KINOMEscan ScanTK; assay type: binding
T3 construct: purchased Eurofins DiscoverX KINOMEscan (scanTK)
T3 sequence (P07333 539-972 limits assumed): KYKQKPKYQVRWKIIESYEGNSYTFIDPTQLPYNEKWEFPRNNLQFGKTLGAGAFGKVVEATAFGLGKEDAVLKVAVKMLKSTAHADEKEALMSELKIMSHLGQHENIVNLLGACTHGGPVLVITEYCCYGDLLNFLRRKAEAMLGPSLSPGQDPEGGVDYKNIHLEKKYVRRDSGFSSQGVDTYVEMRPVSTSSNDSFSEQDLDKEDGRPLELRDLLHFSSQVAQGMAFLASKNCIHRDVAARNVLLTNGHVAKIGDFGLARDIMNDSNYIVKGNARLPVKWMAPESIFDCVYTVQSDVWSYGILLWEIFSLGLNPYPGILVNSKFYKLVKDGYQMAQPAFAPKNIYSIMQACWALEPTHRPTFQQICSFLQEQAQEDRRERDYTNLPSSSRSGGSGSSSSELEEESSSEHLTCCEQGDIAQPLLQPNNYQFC

[5] = target: T4, DDR1 (Homo sapiens, UniProt Q08345); test: KINOMEscan ScanTK; assay type: binding
T4 construct: purchased Eurofins DiscoverX KINOMEscan (scanTK)
T4 sequence (Q08345 19-913): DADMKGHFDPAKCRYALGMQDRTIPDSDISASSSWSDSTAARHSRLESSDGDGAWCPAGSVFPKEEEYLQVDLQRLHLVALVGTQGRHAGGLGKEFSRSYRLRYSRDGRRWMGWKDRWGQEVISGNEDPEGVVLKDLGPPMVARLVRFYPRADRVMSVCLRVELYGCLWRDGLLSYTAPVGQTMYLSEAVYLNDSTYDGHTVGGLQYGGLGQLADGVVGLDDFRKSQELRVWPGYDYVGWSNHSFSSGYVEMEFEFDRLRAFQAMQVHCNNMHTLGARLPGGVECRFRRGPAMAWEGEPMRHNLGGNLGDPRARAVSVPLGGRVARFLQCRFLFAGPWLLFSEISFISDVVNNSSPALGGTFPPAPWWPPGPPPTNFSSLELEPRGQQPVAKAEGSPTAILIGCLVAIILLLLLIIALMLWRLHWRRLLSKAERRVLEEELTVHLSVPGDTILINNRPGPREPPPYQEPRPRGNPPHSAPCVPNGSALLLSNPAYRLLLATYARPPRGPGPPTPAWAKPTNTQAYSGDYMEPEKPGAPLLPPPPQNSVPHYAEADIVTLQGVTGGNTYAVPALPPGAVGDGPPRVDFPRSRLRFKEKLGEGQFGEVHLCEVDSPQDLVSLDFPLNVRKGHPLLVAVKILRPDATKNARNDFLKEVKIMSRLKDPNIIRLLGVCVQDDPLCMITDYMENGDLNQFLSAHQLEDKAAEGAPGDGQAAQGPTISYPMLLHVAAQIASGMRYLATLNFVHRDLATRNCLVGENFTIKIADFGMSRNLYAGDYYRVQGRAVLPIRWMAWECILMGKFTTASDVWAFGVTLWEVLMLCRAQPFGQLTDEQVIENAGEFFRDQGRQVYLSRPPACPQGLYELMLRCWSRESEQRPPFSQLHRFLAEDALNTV

[6] = target: T5, EGFR(L861Q) (Homo sapiens, UniProt P00533, L861Q); test: KINOMEscan ScanTK; assay type: binding
T5 construct: purchased Eurofins DiscoverX KINOMEscan (scanTK)
T5 sequence (P00533 25-1210 L861Q): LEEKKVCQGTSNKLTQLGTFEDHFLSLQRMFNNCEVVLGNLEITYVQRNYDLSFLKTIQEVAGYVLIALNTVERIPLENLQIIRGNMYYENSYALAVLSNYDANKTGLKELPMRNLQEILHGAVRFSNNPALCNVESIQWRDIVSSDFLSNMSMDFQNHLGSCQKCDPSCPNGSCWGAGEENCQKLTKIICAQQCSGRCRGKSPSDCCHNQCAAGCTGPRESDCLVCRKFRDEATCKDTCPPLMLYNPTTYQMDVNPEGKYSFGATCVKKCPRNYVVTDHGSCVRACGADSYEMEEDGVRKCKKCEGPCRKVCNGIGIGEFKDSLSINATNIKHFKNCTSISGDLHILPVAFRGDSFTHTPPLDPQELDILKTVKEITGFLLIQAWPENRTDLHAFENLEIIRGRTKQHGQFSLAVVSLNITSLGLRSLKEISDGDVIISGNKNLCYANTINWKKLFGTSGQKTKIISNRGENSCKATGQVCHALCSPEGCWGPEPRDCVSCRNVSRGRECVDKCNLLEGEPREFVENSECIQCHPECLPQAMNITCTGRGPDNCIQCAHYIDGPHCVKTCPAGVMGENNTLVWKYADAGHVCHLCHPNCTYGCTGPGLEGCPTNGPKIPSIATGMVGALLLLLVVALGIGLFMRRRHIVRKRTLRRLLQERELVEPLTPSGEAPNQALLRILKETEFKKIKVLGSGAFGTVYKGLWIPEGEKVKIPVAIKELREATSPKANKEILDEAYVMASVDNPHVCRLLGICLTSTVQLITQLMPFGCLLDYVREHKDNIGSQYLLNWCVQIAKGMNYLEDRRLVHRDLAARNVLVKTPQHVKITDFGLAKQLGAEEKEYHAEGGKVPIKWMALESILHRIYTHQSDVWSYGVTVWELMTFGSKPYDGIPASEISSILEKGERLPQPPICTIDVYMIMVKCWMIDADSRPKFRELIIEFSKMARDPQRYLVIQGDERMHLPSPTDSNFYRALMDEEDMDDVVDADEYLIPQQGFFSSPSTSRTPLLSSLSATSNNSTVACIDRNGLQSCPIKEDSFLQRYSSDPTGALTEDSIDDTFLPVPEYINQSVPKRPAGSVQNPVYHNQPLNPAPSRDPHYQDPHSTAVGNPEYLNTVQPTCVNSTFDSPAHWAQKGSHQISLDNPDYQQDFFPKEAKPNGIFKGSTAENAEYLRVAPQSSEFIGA

[7] = target: T6, ERBB3 (Homo sapiens, UniProt P21860); test: KINOMEscan ScanTK; assay type: binding; settings: ERBB3
T6 construct: purchased Eurofins DiscoverX KINOMEscan (scanTK)

[8] = target: T7, FGFR4 (Homo sapiens, UniProt P22455); test: KINOMEscan ScanTK; assay type: binding
T7 construct: purchased Eurofins DiscoverX KINOMEscan (scanTK)
T7 sequence (P22455 22-802): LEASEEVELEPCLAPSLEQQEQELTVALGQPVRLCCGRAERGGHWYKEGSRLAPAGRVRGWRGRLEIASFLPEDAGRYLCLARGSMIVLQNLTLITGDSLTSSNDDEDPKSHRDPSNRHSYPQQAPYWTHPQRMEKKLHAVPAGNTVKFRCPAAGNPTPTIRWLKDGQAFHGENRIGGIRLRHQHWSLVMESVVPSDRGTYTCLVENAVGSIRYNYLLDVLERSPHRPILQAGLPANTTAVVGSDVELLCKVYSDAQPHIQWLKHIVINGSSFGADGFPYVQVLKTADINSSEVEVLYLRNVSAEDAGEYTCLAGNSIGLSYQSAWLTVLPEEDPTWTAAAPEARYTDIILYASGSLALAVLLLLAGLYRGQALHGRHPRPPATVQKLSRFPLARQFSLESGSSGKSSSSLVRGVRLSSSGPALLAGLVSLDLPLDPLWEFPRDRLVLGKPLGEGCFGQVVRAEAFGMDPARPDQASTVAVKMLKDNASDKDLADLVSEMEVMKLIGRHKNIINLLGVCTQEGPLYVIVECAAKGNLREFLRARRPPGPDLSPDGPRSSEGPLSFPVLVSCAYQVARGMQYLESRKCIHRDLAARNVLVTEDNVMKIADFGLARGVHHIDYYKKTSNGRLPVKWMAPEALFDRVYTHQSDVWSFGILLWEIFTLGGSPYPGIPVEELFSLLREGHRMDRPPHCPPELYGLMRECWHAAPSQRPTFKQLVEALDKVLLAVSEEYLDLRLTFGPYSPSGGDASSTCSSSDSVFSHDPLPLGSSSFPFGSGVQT

[9] = target: T8, FLT3(D835V) (Homo sapiens, UniProt P36888, D835V); test: KINOMEscan ScanTK; assay type: binding
T8 construct: purchased Eurofins DiscoverX KINOMEscan (scanTK)
T8 sequence (P36888 27-993 D835V): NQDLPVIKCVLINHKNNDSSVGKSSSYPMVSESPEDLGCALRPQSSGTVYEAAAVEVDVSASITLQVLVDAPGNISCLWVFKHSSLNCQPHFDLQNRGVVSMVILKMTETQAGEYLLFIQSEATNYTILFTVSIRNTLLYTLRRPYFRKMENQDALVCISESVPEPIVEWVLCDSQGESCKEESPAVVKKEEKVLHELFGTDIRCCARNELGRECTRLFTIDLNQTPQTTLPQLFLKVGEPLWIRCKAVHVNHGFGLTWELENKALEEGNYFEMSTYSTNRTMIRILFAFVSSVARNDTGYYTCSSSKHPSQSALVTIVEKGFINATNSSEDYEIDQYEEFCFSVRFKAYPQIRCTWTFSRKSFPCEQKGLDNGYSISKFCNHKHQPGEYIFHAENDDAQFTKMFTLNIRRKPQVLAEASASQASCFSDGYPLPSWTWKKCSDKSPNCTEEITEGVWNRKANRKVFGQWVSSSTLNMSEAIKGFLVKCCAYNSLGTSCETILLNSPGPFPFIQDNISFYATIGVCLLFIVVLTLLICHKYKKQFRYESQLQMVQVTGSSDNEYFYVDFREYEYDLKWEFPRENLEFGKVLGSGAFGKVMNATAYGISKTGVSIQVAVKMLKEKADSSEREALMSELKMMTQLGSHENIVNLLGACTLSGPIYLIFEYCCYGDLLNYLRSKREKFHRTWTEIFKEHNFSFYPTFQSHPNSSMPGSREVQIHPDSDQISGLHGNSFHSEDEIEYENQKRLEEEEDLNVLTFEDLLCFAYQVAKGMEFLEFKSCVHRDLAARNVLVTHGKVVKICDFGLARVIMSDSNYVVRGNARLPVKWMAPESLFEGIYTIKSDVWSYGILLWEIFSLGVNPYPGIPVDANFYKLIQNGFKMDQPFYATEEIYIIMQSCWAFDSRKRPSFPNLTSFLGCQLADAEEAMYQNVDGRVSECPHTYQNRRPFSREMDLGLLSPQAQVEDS

[10] = target: T9, INSR (Homo sapiens, UniProt P06213); test: KINOMEscan ScanTK; assay type: binding
T9 construct: purchased Eurofins DiscoverX KINOMEscan (scanTK)

[11] = target: T10, PYK2 (Homo sapiens, UniProt Q14289); test: KINOMEscan ScanTK; assay type: binding
T10 construct: purchased Eurofins DiscoverX KINOMEscan (scanTK)

[12] = target: T11, RET(M918T) (Homo sapiens, UniProt P07949, M918T); test: KINOMEscan ScanTK; assay type: binding
T11 construct: purchased Eurofins DiscoverX KINOMEscan (scanTK)

[13] = target: T12, TRKC (Homo sapiens, UniProt Q16288); test: KINOMEscan ScanTK; assay type: binding; settings: TRKC
T12 construct: purchased Eurofins DiscoverX KINOMEscan (scanTK)
T12 sequence (Q16288 32-839): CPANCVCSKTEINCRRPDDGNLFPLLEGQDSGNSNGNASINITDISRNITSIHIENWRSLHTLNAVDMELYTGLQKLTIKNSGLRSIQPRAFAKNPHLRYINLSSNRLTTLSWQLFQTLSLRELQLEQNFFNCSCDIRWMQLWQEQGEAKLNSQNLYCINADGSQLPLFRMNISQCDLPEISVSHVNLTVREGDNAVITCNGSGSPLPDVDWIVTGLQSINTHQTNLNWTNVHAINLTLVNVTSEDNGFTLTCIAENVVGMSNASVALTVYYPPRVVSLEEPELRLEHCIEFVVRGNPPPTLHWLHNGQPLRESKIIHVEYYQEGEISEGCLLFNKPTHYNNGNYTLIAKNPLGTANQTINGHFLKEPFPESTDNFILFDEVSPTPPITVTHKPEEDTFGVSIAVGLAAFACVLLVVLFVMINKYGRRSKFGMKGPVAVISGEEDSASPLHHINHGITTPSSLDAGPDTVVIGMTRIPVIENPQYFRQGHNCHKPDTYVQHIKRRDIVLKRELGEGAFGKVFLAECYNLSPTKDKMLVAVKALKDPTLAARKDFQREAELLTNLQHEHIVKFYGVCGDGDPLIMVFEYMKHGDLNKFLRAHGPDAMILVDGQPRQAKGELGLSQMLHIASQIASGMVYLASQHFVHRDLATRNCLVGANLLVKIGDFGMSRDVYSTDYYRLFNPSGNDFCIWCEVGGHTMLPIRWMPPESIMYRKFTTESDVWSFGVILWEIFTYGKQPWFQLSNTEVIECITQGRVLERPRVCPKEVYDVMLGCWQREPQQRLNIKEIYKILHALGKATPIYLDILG

[14] = target: JAK3, catalytic domain (795–1124) (Homo sapiens, UniProt P52333); test: PhosphoSens enzymatic IC50 (AssayQuant)
Excerpt: Biochemical enzymatic IC50 data were generated by AssayQuant Technologies (Marlborough, MA) using the PhosphoSens Platform. […] Reaction rate versus log [inhibitor concentration] data were fitted to the four-parameter logistic equation [drawing 1]

[15] = target: wild-type BTK (Homo sapiens, UniProt Q06187); test: BTK in vitro activity assay (ADP-Glo, poly-Glu:Tyr phosphorylation, TCEP)

## CNC(=O)c1cnc(S(C)(=O)=O)nc1N1CCCC(n2nc(-c3ccc(Oc4ccccc4)cc3)c3c(N)ncnc32)C1 (centres unmarked) [Compound 8d, 4-(3-(4-Amino-3-(4-phenoxyphenyl)-1H-pyrazolo[3,4-d]pyrimidin-1-yl)piperidin-1-yl)-N-methyl-2-(methylsulfonyl)pyrimidine-5-carboxamide]
[1]
  kinact/KI: 2.49e+06 M⁻¹ s⁻¹
[1]; BTK
  Ki: 5.07 ± 0.36 nM
  fold reduction of Kinact/Ki (potency) relative to 1g: 3 fold
  kinact: 0.0126 ± 0.00067 s⁻¹
[2]; @1000nM, read-out: % difference (compound - Ib %Control)
  difference in %Control from reference Ib at 1 µM: 26%
[2]; @1000nM, read-out: %Control
  remaining binding at 1 µM: 90%
[2]; read-out: %Control @1000nM
  remaining binding at 1 µM: 90%
[3]; @1000nM
  difference in %Control from reference compound Ib at 1 µM: 48%
[3]; @1000nM, read-out: %Control
  remaining binding at 1 µM: 89%
[3]; read-out: %Control @1000nM
  remaining binding at 1 µM: 89%
[4]; @1000nM
  difference in %Control versus compound Ib at 1 µM: 9%
[4]; @1000nM, read-out: %Control
  remaining binding at 1 µM: 86%
[4]; read-out: %Control @1000nM
  remaining binding at 1 µM: 86%
[5]; @1000nM
  difference in %Control from compound Ib at 1 µM: -14%
[5]; @1000nM, read-out: %Control
  remaining binding at 1 µM: 64%
[5]; read-out: %Control @1000nM
  remaining binding at 1 µM: 64%
[6]; @1000nM
  difference in % of control versus compound Ib at 1 µM: 28.2%
[6]; @1000nM, read-out: %Control
  remaining binding at 1 µM: 29%
[6]; read-out: %Control @1000nM
  remaining binding at 1 µM: 29%
[7]; @1000nM
  % of control difference from compound Ib at 1 µM: 8.9%
[7]; @1000nM, read-out: %Control
  remaining binding at 1 µM: 8.9%
[7]; read-out: %Control @1000nM
  remaining binding at 1 µM: 8.9%
[8]; @1000nM
  difference in %Control from compound Ib at 1 µM: 4%
[8]; @1000nM, read-out: %Control
  remaining binding at 1 µM: 100%
[8]; read-out: %Control @1000nM
  remaining binding at 1 µM: 100%
[9]; @1000nM
  difference in %Control versus compound Ib at 1 µM: 13.1%
[9]; @1000nM, read-out: %Control
  remaining binding at 1 µM: 23%
[9]; read-out: %Control @1000nM
  remaining binding at 1 µM: 23%
[10]; @1000nM
  difference in %Control versus compound Ib at 1 µM: 0%
[10]; @1000nM, read-out: %Control
  remaining binding at 1 µM: 100%
[10]; read-out: %Control @1000nM
  remaining binding at 1 µM: 100%
[11]; @1000nM, read-out: %Control
  remaining binding at 1 µM: 100%
[11]; read-out: %Control @1000nM
  remaining binding at 1 µM: 100%
[12]; @1000nM, read-out: %Control
  remaining binding at 1 µM: 32%
[12]; read-out: %Control @1000nM
  remaining binding at 1 µM: 32%
[13]; @1000nM
  difference in %Control versus compound Ib at 1 µM: -3%
[13]; @1000nM, read-out: %Control
  remaining binding at 1 µM: 92%
[13]; read-out: %Control @1000nM
  remaining binding at 1 µM: 92%
[14]
  IC50: > 1000 nM
[15]
  IC50: 28 ± 6 nM
[15]; read-out: Remaining BTK activity (%)
  remaining activity at 0.1 µM: 2 ± 0.5%
